Reference: ChEMBL document CHEMBL2203073, “Synthesis and biological evaluation of 4,4-dimethyl lithocholic acid derivatives as novel inhibitors of protein tyrosine phosphatase 1B” (Bioorg Med Chem Lett, 2012)

Key:
[1] = target: T1, Tyrosine-protein phosphatase non-receptor type 1 (Homo sapiens, UniProt P18031); assay: Inhibition of PTP1B by para-nitrophenyl phosphate release assay
T1 sequence (P18031 whole entry): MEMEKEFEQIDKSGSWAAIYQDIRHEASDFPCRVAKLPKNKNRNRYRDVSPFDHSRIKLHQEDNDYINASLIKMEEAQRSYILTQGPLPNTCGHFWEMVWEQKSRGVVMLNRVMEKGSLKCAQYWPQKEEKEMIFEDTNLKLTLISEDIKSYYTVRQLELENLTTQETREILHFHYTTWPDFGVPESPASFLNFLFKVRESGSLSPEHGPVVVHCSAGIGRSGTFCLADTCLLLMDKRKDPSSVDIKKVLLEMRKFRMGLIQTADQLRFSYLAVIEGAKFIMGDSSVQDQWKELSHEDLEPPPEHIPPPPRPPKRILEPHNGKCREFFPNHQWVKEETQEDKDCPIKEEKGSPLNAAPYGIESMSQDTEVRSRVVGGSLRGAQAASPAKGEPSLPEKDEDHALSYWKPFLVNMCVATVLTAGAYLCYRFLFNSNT

[2] = Selectivity index, ratio of IC50 for TCPTP to PTP1B
[3] = target: T2, Tyrosine-protein phosphatase non-receptor type 2 (Homo sapiens, UniProt P17706); assay: Inhibition of TCPTP by para-nitrophenyl phosphate release assay
T2 sequence (P17706 whole entry): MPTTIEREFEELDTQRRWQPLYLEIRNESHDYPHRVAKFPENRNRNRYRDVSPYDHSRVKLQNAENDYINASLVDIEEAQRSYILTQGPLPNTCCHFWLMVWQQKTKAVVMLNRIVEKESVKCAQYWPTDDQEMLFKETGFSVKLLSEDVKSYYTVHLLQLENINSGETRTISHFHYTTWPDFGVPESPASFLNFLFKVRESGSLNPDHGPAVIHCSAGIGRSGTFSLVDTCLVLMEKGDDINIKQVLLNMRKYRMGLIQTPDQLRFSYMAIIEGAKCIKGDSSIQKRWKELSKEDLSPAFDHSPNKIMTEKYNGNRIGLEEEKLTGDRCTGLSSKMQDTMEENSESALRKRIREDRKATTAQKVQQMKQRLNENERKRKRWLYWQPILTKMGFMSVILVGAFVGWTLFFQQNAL

[4] = target: Receptor-type tyrosine-protein phosphatase F (Homo sapiens) (UniProt P10586); assay: Inhibition of LAR at 40 uM
[5] = target: T3, Tyrosine-protein phosphatase non-receptor type 11 (Homo sapiens) (UniProt Q06124); assay: Inhibition of SHP2 at 40 uM
T3 sequence (whole entry): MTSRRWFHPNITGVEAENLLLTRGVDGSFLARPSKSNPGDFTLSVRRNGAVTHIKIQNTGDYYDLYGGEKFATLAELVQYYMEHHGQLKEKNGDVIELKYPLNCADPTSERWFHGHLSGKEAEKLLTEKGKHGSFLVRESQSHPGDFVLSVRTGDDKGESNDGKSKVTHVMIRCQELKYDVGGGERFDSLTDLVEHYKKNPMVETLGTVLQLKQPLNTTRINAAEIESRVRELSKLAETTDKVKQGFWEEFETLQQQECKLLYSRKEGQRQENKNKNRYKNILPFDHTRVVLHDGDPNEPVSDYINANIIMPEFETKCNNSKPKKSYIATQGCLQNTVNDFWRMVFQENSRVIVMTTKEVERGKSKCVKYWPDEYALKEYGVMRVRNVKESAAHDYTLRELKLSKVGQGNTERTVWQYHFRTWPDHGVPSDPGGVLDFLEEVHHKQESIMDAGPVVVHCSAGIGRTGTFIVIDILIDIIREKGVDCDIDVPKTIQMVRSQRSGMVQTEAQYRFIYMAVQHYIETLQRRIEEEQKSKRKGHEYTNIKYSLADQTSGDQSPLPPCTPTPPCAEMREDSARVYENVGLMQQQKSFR

[6] = target: T1, Tyrosine-protein phosphatase non-receptor type 1; assay: Competitive inhibition of PTP1B by para-nitrophenyl phosphate release assay
[7] = target: Tyrosine-protein phosphatase non-receptor type 6 (Homo sapiens) (UniProt P29350); assay: Inhibition of SHP1 at 40 uM
Tyrosine-protein phosphatase non-receptor type 6 (Homo sapiens), sequence (P29350 whole entry): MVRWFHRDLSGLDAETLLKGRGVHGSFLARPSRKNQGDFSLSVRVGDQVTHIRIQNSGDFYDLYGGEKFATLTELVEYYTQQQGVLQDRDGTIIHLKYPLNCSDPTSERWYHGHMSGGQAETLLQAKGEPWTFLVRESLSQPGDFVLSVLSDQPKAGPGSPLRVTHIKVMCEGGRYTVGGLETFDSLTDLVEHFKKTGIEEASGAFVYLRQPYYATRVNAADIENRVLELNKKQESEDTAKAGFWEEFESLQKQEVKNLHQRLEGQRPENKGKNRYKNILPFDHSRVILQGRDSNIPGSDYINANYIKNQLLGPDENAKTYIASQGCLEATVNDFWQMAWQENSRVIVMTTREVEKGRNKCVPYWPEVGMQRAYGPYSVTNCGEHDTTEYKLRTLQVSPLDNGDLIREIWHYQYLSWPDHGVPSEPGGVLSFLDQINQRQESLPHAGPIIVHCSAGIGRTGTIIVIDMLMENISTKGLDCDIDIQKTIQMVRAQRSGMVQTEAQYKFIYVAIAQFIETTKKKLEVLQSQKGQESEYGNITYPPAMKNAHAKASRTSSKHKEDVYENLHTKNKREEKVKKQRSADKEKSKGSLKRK

Receptor-type tyrosine-protein phosphatase F (Homo sapiens), sequence (P10586 whole entry): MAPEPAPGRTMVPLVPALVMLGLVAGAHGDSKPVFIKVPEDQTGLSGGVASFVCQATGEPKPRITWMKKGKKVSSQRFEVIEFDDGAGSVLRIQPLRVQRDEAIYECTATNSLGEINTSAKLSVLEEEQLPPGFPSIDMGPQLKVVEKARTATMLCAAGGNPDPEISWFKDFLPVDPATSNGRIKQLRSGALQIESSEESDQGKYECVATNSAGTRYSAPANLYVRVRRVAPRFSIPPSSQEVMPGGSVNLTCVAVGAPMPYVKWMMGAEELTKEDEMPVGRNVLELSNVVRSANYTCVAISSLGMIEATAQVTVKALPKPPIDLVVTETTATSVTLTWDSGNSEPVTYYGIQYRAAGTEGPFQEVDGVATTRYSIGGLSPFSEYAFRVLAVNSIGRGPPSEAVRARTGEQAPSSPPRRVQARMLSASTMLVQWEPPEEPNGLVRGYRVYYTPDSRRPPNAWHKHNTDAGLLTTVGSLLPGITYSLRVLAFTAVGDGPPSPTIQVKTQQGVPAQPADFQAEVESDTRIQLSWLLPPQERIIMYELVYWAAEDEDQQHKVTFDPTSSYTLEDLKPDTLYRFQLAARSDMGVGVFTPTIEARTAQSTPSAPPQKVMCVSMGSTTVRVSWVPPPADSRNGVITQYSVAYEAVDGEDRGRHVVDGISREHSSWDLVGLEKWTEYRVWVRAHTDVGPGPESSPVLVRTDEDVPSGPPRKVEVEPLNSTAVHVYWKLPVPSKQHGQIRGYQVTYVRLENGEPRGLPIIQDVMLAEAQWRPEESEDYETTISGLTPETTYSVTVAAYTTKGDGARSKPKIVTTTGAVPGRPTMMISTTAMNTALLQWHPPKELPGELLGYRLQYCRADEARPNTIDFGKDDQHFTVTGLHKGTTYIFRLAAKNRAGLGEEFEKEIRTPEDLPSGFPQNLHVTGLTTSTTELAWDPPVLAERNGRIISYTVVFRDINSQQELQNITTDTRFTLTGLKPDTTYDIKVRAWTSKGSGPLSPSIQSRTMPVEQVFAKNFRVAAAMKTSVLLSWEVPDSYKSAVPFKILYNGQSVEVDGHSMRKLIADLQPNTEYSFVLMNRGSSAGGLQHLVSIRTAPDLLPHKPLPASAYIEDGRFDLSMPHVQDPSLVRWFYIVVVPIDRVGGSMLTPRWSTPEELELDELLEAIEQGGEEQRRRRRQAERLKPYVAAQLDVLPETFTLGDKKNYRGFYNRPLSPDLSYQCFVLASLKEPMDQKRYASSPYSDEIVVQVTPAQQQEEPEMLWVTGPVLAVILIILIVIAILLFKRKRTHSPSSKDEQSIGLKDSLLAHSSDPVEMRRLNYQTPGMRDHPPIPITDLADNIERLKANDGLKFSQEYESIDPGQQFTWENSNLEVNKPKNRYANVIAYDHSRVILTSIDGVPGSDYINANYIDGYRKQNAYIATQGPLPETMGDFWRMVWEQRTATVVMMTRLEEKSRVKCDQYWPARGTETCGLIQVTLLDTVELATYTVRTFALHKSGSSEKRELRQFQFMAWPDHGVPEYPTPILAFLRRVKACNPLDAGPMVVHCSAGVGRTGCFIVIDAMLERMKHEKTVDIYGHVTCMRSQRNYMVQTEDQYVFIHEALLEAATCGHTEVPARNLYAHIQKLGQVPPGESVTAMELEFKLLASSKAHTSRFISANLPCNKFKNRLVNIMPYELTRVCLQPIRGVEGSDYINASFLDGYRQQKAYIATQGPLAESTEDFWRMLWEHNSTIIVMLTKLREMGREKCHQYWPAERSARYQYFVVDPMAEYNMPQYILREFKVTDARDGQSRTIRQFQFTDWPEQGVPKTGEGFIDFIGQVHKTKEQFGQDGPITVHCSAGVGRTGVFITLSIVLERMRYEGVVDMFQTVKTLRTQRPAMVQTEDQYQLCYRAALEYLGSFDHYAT

In the case of `CCOC(=O)CC[C@@H](C)[C@H]1CC[C@H]2[C@@H]3CC=C4C(C)(C)c5[nH]ncc5C[C@]4(C)[C@H]3CC[C@]12C`, the IC50 [1] is reported as 19.2 µM, the Ratio IC50 [2] is reported as > 2.1 and the IC50 [3] is reported as > 40 µM.
For `C[C@H](CCC(=O)O)[C@H]1CC[C@H]2[C@@H]3CC=C4C(C)(C)C(=O)CC[C@]4(C)[C@H]3CC[C@]12C`, the IC50 [1] was 13.2 µM and the IC50 [3] was > 50 µM.
Work on `C[C@H](CCC(=O)O)[C@H]1CC[C@H]2[C@@H]3CC=C4C(C)(C)c5nc(N)sc5C[C@]4(C)[C@H]3CC[C@]12C` yielded an IC50 [1] of 5.57 µM, a Ratio IC50 [2] of 2 and an IC50 [3] of 11 µM.
For `COC(=O)CC[C@@H](C)[C@H]1CC[C@H]2[C@@H]3CC=C4C(C)(C)c5nc(N)sc5C[C@]4(C)[C@H]3CC[C@]12C`, the IC50 [1] was 9.04 µM, the Ratio IC50 [2] was > 4.4 and the IC50 [3] was > 40 µM.
Work on `C[C@H](CCC(=O)O)[C@H]1CC[C@H]2[C@@H]3CC=C4C(C)(C)c5nccnc5C[C@]4(C)[C@H]3CC[C@]12C` yielded an IC50 [1] of 8.62 µM, a Ratio IC50 [2] of 2.8 and an IC50 [3] of 23.8 µM.
`C[C@H](CCC(=O)O)[C@H]1CC[C@H]2[C@@H]3CC=C4C(C)(C)c5nc(N)ncc5C[C@]4(C)[C@H]3CC[C@]12C` gave an IC50 [1] of 3.61 µM, a Ratio IC50 [2] of 5 and an IC50 [3] of 17.1 µM.
With `C[C@H](CCC(=O)O)[C@H]1CC[C@H]2[C@@H]3CC=C4C(C)(C)c5[nH]ncc5C[C@]4(C)[C@H]3CC[C@]12C` the IC50 [1] was 4.11 µM, the Ratio IC50 [2] was 4.7 and the IC50 [3] was 19.2 µM.
`Cc1ncc2c(n1)C(C)(C)C1=CC[C@H]3[C@@H]4CC[C@H]([C@H](C)CCC(=O)O)[C@@]4(C)CC[C@@H]3[C@@]1(C)C2` gave an IC50 [1] of 9.11 µM, a Ratio IC50 [2] of 1.2 and an IC50 [3] of 11.5 µM.
With `COC(=O)CC[C@@H](C)[C@H]1CC[C@H]2[C@@H]3CC=C4C(C)(C)C(=O)CC[C@]4(C)[C@H]3CC[C@]12C` the IC50 [1] was 13.2 µM, the Ratio IC50 [2] was > 3.8 and the IC50 [3] was > 50 µM.
`C[C@H](CCC(=O)O)[C@H]1CC[C@H]2[C@@H]3CC=C4C(C)(C)c5c(cnn5-c5ccccc5)C[C@]4(C)[C@H]3CC[C@]12C` showed an inhibition [4] of 26.9%, an IC50 [1] of 1.62 µM and a Ratio IC50 [2] of 14.1. It also gave an inhibition [5] of 9.36%, a Ki [6] of 0.84 µM and an IC50 [3] of 22.8 µM. The inhibition [7] was 0.97%.
For `COC(=O)CC[C@@H](C)[C@H]1CC[C@H]2[C@@H]3CC=C4C(C)(C)c5nccnc5C[C@]4(C)[C@H]3CC[C@]12C`, the IC50 [1] was 28.2 µM, the Ratio IC50 [2] was > 1.4 and the IC50 [3] was > 40 µM.
With `C[C@H](CCC(=O)O)[C@H]1CC[C@H]2[C@@H]3CC=C4C(C)(C)c5nnsc5C[C@]4(C)[C@H]3CC[C@]12C` the IC50 [1] was 39.4 µM, the Ratio IC50 [2] was 0.9 and the IC50 [3] was 36.6 µM.
With `C[C@H](CCC(=O)O)[C@H]1CC[C@H]2[C@@H]3CC=C4C(C)(C)c5oncc5C[C@]4(C)[C@H]3CC[C@]12C` the IC50 [1] was 9.13 µM, the Ratio IC50 [2] was 5.1 and the IC50 [3] was 46.6 µM.
Compound `C[C@H](CCC(=O)O)[C@H]1CC[C@H]2[C@@H]3CC[C@@H]4C[C@H](O)CC[C@]4(C)[C@H]3CC[C@]12C` [LITHOCHOLIC ACID] has an IC50 [1] of 12.7 µM, a Ratio IC50 [2] of 1.6 and an IC50 [3] of 20.4 µM.
`C[C@H](CCC(=O)O)[C@H]1CC[C@H]2[C@@H]3CC=C4C(C)(C)c5ncncc5C[C@]4(C)[C@H]3CC[C@]12C` gave an IC50 [1] of 11.6 µM, a Ratio IC50 [2] of 0.9 and an IC50 [3] of 10.8 µM.
For `O=C(O)C(=O)c1ccc(OCc2ccc(COc3ccc(C(=O)C(=O)O)cc3)cc2)cc1`, the Ratio IC50 [2] was 1.6.
In the case of `CCOC(=O)CC[C@@H](C)[C@H]1CC[C@H]2[C@@H]3CC=C4C(C)(C)c5nc(N)ncc5C[C@]4(C)[C@H]3CC[C@]12C`, the IC50 [1] is reported as > 40 µM and the IC50 [3] is reported as > 40 µM.
For `C[C@H](CCC(=O)O)[C@H]1CC[C@H]2[C@@H]3CC=C4C(C)(C)c5[nH]nc(C(=O)O)c5C[C@]4(C)[C@H]3CC[C@]12C`, the IC50 [1] was 9.27 µM, the Ratio IC50 [2] was 0.9 and the IC50 [3] was 9 µM.
